Laboratory results: patent US20260092085A1, “SYNTHETIC TRIPLEX PEPTIDE NUCLEIC ACID-BASED INHIBITORS FOR CANCER THERAPY” (University of Connecticut, priority 2022, published 2026)
{RR} = two arginine residues at the PNA terminus

What was measured:
[1] = tested on: miR-155; assay: miR-155 gene expression in SUDHL-2 xenograft tumors; parameters: species or system NSG mice; conditions: SUDHL-2 xenograft after in vivo treatment
Description: Data normalized with average control U6 (n=4) and represented as mean±standard error mean. Unpaired t test was used for statistical analysis. Further statistical analysis was performed relative to Scr-γtcPNA-155. **p<0.01, ***p<0.001.
Further, we corroborated our results in the SUDHL-2 derived xenograft mouse model. We injected the SUDHL-2 cells in the right and left flank of mice. After 14-21 days, when the tumor volume reached 100-200 mm3, the mice were randomized into three treatment groups based on uniform tumor volume distribution in each group. […] (FIG. 27)

[2] = tested on: miR-155 associated tumor suppressor genes; assay: Gene expression of miR-155 downstream tumor suppressor genes in SUDHL-2 cells; type: cell-based; conditions: SUDHL-2, in comparison to Scr-γtcPNA-155 and PNA-155
Description: Data is normalized with average GAPDH control (n=3), and represented as mean±SEM, **p<0.01. Unpaired two tailed t-test was used for statistical analysis and the analysis was performed relative to Scr-gtcPNA-155.
Similarly, 400,000 SUDHL-2 cells were seeded in a 12 well plate and treated with 500 nM Scr gamma tcPNA-155, PNA-155 and gamma tcPNA-155 for 48 hrs in an incubator (37° C. and 5% CO2). The RNA was extracted and the samples for gene expression were prepared in the same manner as described above.

[3] = tested on: SUDHL-5 cells; assay: Cell viability by trypan blue assay, SUDHL-5; type: cell-based
Description: Cell viability was performed using trypan blue-based assay (n=3 technical triplicate), data represented as mean±(SEM), * represents the statistical analysis were performed relative to Scr-γtcPNA-155 and ♦ represent analysis performed relative to PNA-155. *p<0.05, **p<0.01, ***p<0.001 and ****p<0.0001, ♦p<0.05, ♦♦p<0.01, unpaired two-tailed t-test was used for statistical analysis. The experiment was repeated three times and in triplicate.
Cell viability was performed using trypan blue-based assay (n=3), data represented as mean±standard error mean (SEM), *p<0.05, **p<0.01. Unpaired two-tailed t-test was used for statistical analysis.
Cell viability was performed using trypan blue-based assay (n=3), data represented as mean±standard error mean (SEM).
Cell viability by trypan blue assay: Diffused large B cell lymphoma (DLBCL) cell lines like SUDHL-2 (ATCC® CRL-2956™) and SUDHL-5 (ATCC® CRL-2958™) cells were purchased from ATCC (Virginia, USA). The cells were regularly tested for Mycoplasma contamination using MycoAlert™ Mycoplasma detection kit (Lonza). All the cells used in the experiment were passaged less than 8 times. 10,000 U2932, SUDHL-5, or SUDHL-2 cells were plated in a 96 well plate. The cells were treated with different doses (500 nM, 1000 nM, 2000 nM and 4000 nM) of PNA-155, gamma tcPNA-155 or Scr-γtcPNA-155 for 48 hrs in an incubator (37° C. and 5% CO2). The dead cells were marked with trypan blue. Further counting was performed using an automated cell counter (Bio-rad).

[4] = tested on: miR-155 downstream genes; assay: Downstream gene expression and protein levels in U2932 tumor samples; type: in vivo, NSG mice; conditions: U2932 xenograft
Description: FIGS. 22A-D show in vivo gene expression and protein level analysis. (22A) miR-155 gene expression levels in U2932 tumor samples after in vivo treatment with indicated PNAs. Data was normalized with average control U6 (n=4, data represented as mean±standard error mean). ***p<0.001 (22B) Gene expression level of downstream target genes of miR-155: MCL1 in U2932 tumor samples after treatment with total 3 mg kg-1 dose of Scr-γtcPNA-155, PNA-155, γPNA-155 and γtcPNA-155 and normalized with average control GAPDH (n=3, data represented as mean±SEM), unpaired two-tailed t-test was performed for analysis). *p<0.05, **p<0.01 (22C) Representative western blot of Mcl-1 protein and its quantification (n=3 technical replicate) in U2932 tumor samples treated with total 3 mg kg-1 dose of Scr-γtcPNA-155, PNA-155 and γtcPNA-155. Data is represented as mean±SEM and unpaired two-tailed t-test was performed for analysis. *p<0.05. The relative protein levels were determined from the band intensity using ImageJ software and normalized relative to loading control and treatment control. (22D) Gene expression level of tumor suppressor proteins (FOXO3A, CUX1, SOCS1, CSF1R, JARID2, SHIP1, PICALM, PDCD4, BACH1, CASP3) in U2932 tumor samples after treatment with total 3 mg kg-1 dose of Scr-γtcPNA-155, PNA-155, γPNA-155 and γtcPNA-155 and normalized with average control GAPDH (n=3, data represented as mean±SEM, unpaired two-tailed t-test was performed for statistical analysis). *p<0.05, **p<0.01.
Data is represented as mean±SEM and unpaired t-test was used for statistical analysis *p<0.05. The relative protein levels were determined from the band intensity using ImageJ software and normalized relative to loading control and treatment control.
Data is represented as mean±SEM and unpaired t-test was used for statistical analysis.
Data is represented as mean±SEM and unpaired t-test was used for statistical analysis. The relative protein levels were determined from the band intensity using ImageJ software and normalized relative to loading control and treatment control.
RNA and Protein extraction from tumor samples: The mice were injected intra-tumorally with 1 mg kg-1 dose of PNA-155, γtcPNA-155, γPNA-155, Scr-γtcPNA-155 or were untreated. The injections were repeated two additional times after 1 week each. The length, breadth, and depth of the tumors were measured daily using a vernier caliper. The mice were euthanized when the tumor volumes reached 2000 mm^3. The resected tumor sections were finely minced using a sterile blade and suspended in dissociation media (4 ml) comprising of RPMI-1640, 1.2 mg/ml dispase, and 0.5 mg/ml collagenase for 90 mins at 500 rpm at 37° C. The dissociated tumors were washed with buffer saline at 2500 rpm (4 mins) at 4° C. and then suspended in 0.25% trypsin for 4 mins at room temperature. RPMI 1640 media was added to the trypsinized tumor mass, and the cells were passed through a 70 um filter. The cells were centrifuged at 2500 rpm for 4 mins at 4° C. The cell pellet was then suspended in 1×RBC lysis buffer (Sigma) and incubated on ice for 10 mins. PBS was added to the cells and the cells were passed through a 40 um filter. The cells were centrifuged at 2500 rpm for 4 mins at 4° C. The cell pellet was resuspended in 0.5% BSA in PBS. The mouse cells were removed from the tumor cells using a mouse cell depletion kit (Miltenyi Biotec) according to the manufacturer's protocol. The enriched tumor cells from each tumor sample were divided into two fractions. RNA for gene expression analysis was extracted from one tumor fraction by the same procedure as mentioned earlier. The protein for western blot analysis was extracted from the second fraction using the method described above.

Substance	miR-155 expression level in tumors [1]	upregulation of miR-155 associated tumor suppressor genes [2]	reduction in cell viability at 500 nM ([3]; SUDHL-5, 500 nM, compared to PNA-155 treated group)	decrease in cell viability ([3]; SUDHL-5, 4UM, 48 hours)	upregulation of tumor suppressor genes in tumors ([4]; intratumoral)	decrease in MCL1 mRNA levels in tumors ([4]; total 3 mg kg-1, compared to PNA-155 treated group)	increase in Caspase-3 protein levels in tumors ([4]; versus Scr-γtcPNA-155-treated tumors)	Mcl-1 protein level in tumors ([4]; western blot)
PNA-155: conventional full-length regular PNA (23mer), RR-ACCCCTATCACGATTAGCATTAA-RR, SEQ ID NO: 1 (all peptide nucleic acid (PNA), 5' {RR}, 3' {RR}) [reference compound]	significantly reduces miR-155 expression level	–	–	–	–	–	–	–
γtcPNA-155: serine gamma tail-clamp anti-miR-155 PNA, RR-TJJJJ-OOO-ACCCCTATCACGATTAGCATTAA-RR, SEQ ID NO: 3 (all peptide nucleic acid (PNA); serine gamma PNA, tail-clamp TJJJJ via linkers, Arg-Arg at both ends)	–	significant upregulation	significant reduction in cell viability	~80%	significant upregulation	~50%	23%	reduction in the protein levels
